# Laboratory results from article PMC4705983, “Structural Dissection of the Maltodextrin Disproportionation Cycle of the Arabidopsis Plastidial Disproportionating Enzyme 1 (DPE1)” (The Journal of Biological Chemistry, 2015).
# Tests used:
# [1] = molecular target: T1, AtDPE1 (disproportionating enzyme 1) (Arabidopsis thaliana, UniProt Q9LV91); test: X-ray crystallography, crystal soak; assay type: biochemical; conditions: covalent; 10 mM soak, pH 8.0; only the maltosyl unit (subsites -2, -1) linked to Asp-373 seen, from slow cleavage; 2.30 Å
# T1 construct: gene DPE1; residues 46-576, transit peptide removed, N-terminal His6 tag kept (pET151/D-TOPO), homodimer
# T1 sequence (Q9LV91 46-576): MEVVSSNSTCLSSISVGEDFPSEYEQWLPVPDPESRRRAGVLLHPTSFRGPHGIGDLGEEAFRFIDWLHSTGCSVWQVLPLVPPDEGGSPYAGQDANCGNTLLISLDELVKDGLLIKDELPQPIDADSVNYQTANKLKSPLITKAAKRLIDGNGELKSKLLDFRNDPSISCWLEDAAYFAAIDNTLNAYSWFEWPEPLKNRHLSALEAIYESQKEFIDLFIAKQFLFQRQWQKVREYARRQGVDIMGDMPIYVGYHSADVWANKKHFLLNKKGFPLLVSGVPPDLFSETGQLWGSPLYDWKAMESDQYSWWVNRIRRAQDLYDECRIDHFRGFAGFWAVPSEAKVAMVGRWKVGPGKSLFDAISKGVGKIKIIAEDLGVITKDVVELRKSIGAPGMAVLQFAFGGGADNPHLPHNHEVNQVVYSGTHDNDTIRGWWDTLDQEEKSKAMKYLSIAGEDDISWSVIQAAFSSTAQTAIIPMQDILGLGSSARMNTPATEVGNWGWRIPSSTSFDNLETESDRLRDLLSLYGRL
# [2] = molecular target: T1, AtDPE1 (disproportionating enzyme 1); test: turnover in crystal (transglycosylation during soak), X-ray crystallography; assay type: biochemical; conditions: 10 mM soak, pH 8.0; intact maltotriose not seen, longer malto-oligosaccharide bound
smiles,measurement,setting,value
"OC[C@H]1O[C@@H]2O[C@H]3[C@H](O)[C@@H](O)[C@@H](O[C@H]4[C@H](O)[C@@H](O)[C@@H](O[C@H]5[C@H](O)[C@@H](O)[C@@H](O[C@H]6[C@H](O)[C@@H](O)[C@@H](O[C@H]7[C@H](O)[C@@H](O)[C@@H](O[C@H]8[C@H](O)[C@@H](O)[C@@H](O[C@H]1[C@H](O)[C@H]2O)O[C@@H]8CO)O[C@@H]7CO)O[C@@H]6CO)O[C@@H]5CO)O[C@@H]4CO)O[C@@H]3CO [BCD, β-cyclodextrin]","X-ray crystallography, crystal soak",[1],The covalently bound donor most likely resulted from a slow hydrolysis of β-cyclodextrin
"OC[C@H]1O[C@H](O[C@H]2[C@H](O)[C@@H](O)[C@@H](O[C@H]3[C@H](O)[C@@H](O)C(O)O[C@@H]3CO)O[C@@H]2CO)[C@H](O)[C@@H](O)[C@@H]1O (some centres unmarked) [MA3, maltotriose]","turnover in crystal (transglycosylation during soak), X-ray crystallography",[2],"malto-oligosaccharide in each active site, indicative of transglycosylation reactions occurring during crystal soaking"
